Data taken from the NIST ThermoML archive (doi:10.1016/j.jct.2006.03.010).
± gives the expanded uncertainty stated by the source.

Assay: xn = mol fraction of the nth substance listed
Details: 101 kPa, Liquid; for speed of sound: Linear variable-path acoustic interferometer

ClC(Cl)Cl [trichloromethane] + CCO
Details	mass density, 298.15 K [kg/m3]	mass density, 308.15 K [kg/m3]	speed of sound, 298.15 K [m/s]	speed of sound, 308.15 K [m/s]	viscosity, 298.15 K [mPa·s]	viscosity, 308.15 K [mPa·s]
x1 = 0.0522	834.86 ± 0.47	824.87 ± 0.5	1129 ± 3	1092 ± 3	1.085 ± 0.014	0.902 ± 0.013
x1 = 0.1007	879.76 ± 0.5	868.7 ± 0.53	1114 ± 3	1076 ± 3	1.07 ± 0.014	0.89 ± 0.013
x1 = 0.1468	920.98 ± 0.53	909.11 ± 0.56	1101 ± 3	1062 ± 3	1.043 ± 0.014	0.869 ± 0.012
x1 = 0.2014	968.01 ± 0.56	955.3 ± 0.6	1085 ± 3	1046 ± 3	1.003 ± 0.014	0.836 ± 0.012
x1 = 0.2505	1008.24 ± 0.6	994.85 ± 0.63	1071 ± 3	1034 ± 3	0.956 ± 0.013	0.803 ± 0.012
x1 = 0.3005	1047.8 ± 0.63	1033.7 ± 0.66	1057 ± 3	1022 ± 2	0.901 ± 0.013	0.764 ± 0.011
x1 = 0.3491	1084.58 ± 0.66	1069.92 ± 0.7	1045 ± 3	1011 ± 2	0.86 ± 0.012	0.732 ± 0.011
x1 = 0.3999	1121.8 ± 0.7	1106.5 ± 0.73	1033 ± 3	1000 ± 2	0.809 ± 0.012	0.696 ± 0.011
x1 = 0.4505	1157.08 ± 0.74	1141.59 ± 0.77	1021 ± 3	991 ± 2	0.767 ± 0.011	0.665 ± 0.01
x1 = 0.5045	1193.09 ± 0.78	1177.49 ± 0.81	1011 ± 2	982 ± 2	0.73 ± 0.011	0.64 ± 0.01
x1 = 0.5509	1223.51 ± 0.82	1207.46 ± 0.85	1003 ± 2	975 ± 2	0.694 ± 0.011	0.613 ± 0.01
x1 = 0.6007	1254.55 ± 0.86	1238.37 ± 0.89	996 ± 2	967 ± 2	0.668 ± 0.01	0.596 ± 0.01
x1 = 0.6492	1284.3 ± 0.89	1267.81 ± 0.93	990 ± 2	962 ± 2	0.644 ± 0.01	0.58 ± 0.01
x1 = 0.7008	1314.71 ± 0.94	1297.8 ± 0.97	985 ± 2	957 ± 2	0.629 ± 0.01	0.569 ± 0.01
x1 = 0.7496	1342.79 ± 0.98	1325.84 ± 1	982 ± 2	953 ± 2	0.615 ± 0.01	0.562 ± 0.01
x1 = 0.8059	1374.26 ± 1	1357.1 ± 1.1	981 ± 2	950 ± 2	0.601 ± 0.01	0.551 ± 0.01
x1 = 0.8544	1400.99 ± 1.1	1383.35 ± 1.1	980 ± 2	949 ± 2	0.596 ± 0.01	0.549 ± 0.01
x1 = 0.8994	1425.35 ± 1.1	1407.35 ± 1.1	981 ± 3	949 ± 2	0.588 ± 0.01	0.544 ± 0.009
x1 = 0.9498	1452.14 ± 1.2	1433.5 ± 1.2	983 ± 3	948 ± 2	0.576 ± 0.01	0.531 ± 0.009
x1 = 1	1478.82 ± 1.2	1459.45 ± 1.2	985 ± 3	950 ± 2	0.556 ± 0.01	0.513 ± 0.009

ClC(Cl)Cl [trichloromethane] + CO
Details	mass density, 298.15 K [kg/m3]	mass density, 308.15 K [kg/m3]	speed of sound, 298.15 K [m/s]	speed of sound, 308.15 K [m/s]	viscosity, 298.15 K [mPa·s]	viscosity, 308.15 K [mPa·s]
x1 = 0.0501	852.42 ± 0.51	842 ± 0.54	1080 ± 3	1048 ± 3	0.587 ± 0.01	0.523 ± 0.009
x1 = 0.0959	907.6 ± 0.53	896.56 ± 0.57	1060 ± 3	1029 ± 2	0.612 ± 0.01	0.545 ± 0.009
x1 = 0.1501	967.31 ± 0.57	955.55 ± 0.61	1041 ± 3	1010 ± 2	0.635 ± 0.01	0.564 ± 0.009
x1 = 0.2007	1018.13 ± 0.61	1005.77 ± 0.64	1028 ± 2	997 ± 2	0.651 ± 0.01	0.576 ± 0.01
x1 = 0.2499	1063.89 ± 0.64	1050.91 ± 0.68	1017 ± 2	986 ± 2	0.657 ± 0.01	0.584 ± 0.01
x1 = 0.3015	1107.99 ± 0.68	1094.32 ± 0.71	1007 ± 2	976 ± 2	0.663 ± 0.01	0.586 ± 0.01
x1 = 0.3502	1146.56 ± 0.71	1132.48 ± 0.75	1000 ± 2	969 ± 2	0.66 ± 0.01	0.588 ± 0.01
x1 = 0.3966	1180.85 ± 0.75	1166.26 ± 0.78	994 ± 2	963 ± 2	0.658 ± 0.01	0.584 ± 0.01
x1 = 0.4498	1217.39 ± 0.79	1202.34 ± 0.82	989 ± 2	958 ± 2	0.651 ± 0.01	0.582 ± 0.01
x1 = 0.5047	1252.37 ± 0.83	1236.78 ± 0.86	984 ± 2	954 ± 2	0.641 ± 0.01	0.572 ± 0.01
x1 = 0.5506	1279.51 ± 0.86	1263.63 ± 0.9	981 ± 2	950 ± 2	0.633 ± 0.01	0.569 ± 0.01
x1 = 0.6033	1308.68 ± 0.9	1292.64 ± 0.94	979 ± 2	948 ± 2	0.619 ± 0.01	0.56 ± 0.01
x1 = 0.6515	1333.97 ± 0.94	1317.33 ± 0.97	977 ± 2	946 ± 2	0.612 ± 0.01	0.552 ± 0.009
x1 = 0.7032	1359.31 ± 0.98	1342.39 ± 1	976 ± 2	945 ± 2	0.601 ± 0.01	0.55 ± 0.009
x1 = 0.751	1381.31 ± 1	1363.96 ± 1.1	976 ± 2	944 ± 2	0.592 ± 0.01	0.536 ± 0.009
x1 = 0.7987	1402.09 ± 1.1	1384.31 ± 1.1	976 ± 2	944 ± 2	0.583 ± 0.01	0.531 ± 0.009
x1 = 0.85	1423.32 ± 1.1	1405.26 ± 1.1	977 ± 2	945 ± 2	0.574 ± 0.01	0.523 ± 0.009
x1 = 0.902	1443.49 ± 1.1	1425.07 ± 1.2	979 ± 2	946 ± 2	0.567 ± 0.01	0.516 ± 0.009
x1 = 0.9505	1461.44 ± 1.2	1442.54 ± 1.2	982 ± 3	948 ± 2	0.561 ± 0.01	0.515 ± 0.009
x1 = 1	1478.82 ± 1.2	1459.45 ± 1.2	985 ± 3	950 ± 2	0.556 ± 0.01	0.513 ± 0.009
